From patent US20070129344A1, “Bicyclic 6-alkylidene-penem beta-lactamase inhibitors and beta-lactam antibiotic combination: a broad spectrum antibiotic” (priority 2005, published 2007)

Assays:
[1] = system: E. coli LSU 80-8 GC 6265 TEM-1; assay: MIC microbroth dilution; β-lactamase class A; format: cell-based; conditions: E. coli GC 6265; Cefepime + 4 ug/ml Compound 1
Procedure: (§1) The in vitro activities of the antibiotics were determined by the microbroth dilution method as recommended by the National Committee for Clinical Laboratory Standards (NCCLS). (NCCLS. 2000. Methods for Dilution Antimicrobial Susceptibility Tests for Bacteria That Grow Aerobically; Approved Standards: M7-A5, vol. 19. National Committee for Clinical Laboratory Standards, Villanova, Pa.). Mueller-Hinton II broth (MHBII)(BBL Cockeysville, Md.), was used for the testing procedure. […]. The plates were incubated for 18-22 hours at 35° C. in ambient air.

K. pn GC 1827 (TEM-3) = assay: MIC microbroth dilution; β-lactamase class A (ESBL); format: cell-based, K. pneumoniae; conditions: Cefepime + 4 ug/ml Compound 1
Procedure: as §1

[2] = system: P. aeruginosa GC 1764 AmpC-constitutive; assay: MIC microbroth dilution; β-lactamase class C; format: cell-based; conditions: Cefepime + 4 ug/ml Compound 1
Method in brief: (§2)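 MICs came from the NCCLS-recommended microbroth dilution method, with Mueller-Hinton II broth as the medium. Incubation: 35° C., ambient air, 18-22 hours.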

[3] = system: S. marcescens GC 4150 Stably derepressed AmpC; assay: MIC microbroth dilution; β-lactamase class C; format: cell-based; conditions: Cefepime + 4 ug/ml Compound 1
Method in brief: as §2

[4] = system: S. marcescens PT 488 Stably derepressed AmpC; assay: MIC microbroth dilution; β-lactamase class C; format: cell-based; conditions: Cefepime + 4 ug/ml Compound 1
Method in brief: as §2

[5] = system: S. marcescens PT 6003 Stably derepressed AmpC; assay: MIC microbroth dilution; β-lactamase class C; format: cell-based; conditions: Cefepime + 4 ug/ml Compound 1
Method in brief: as §2

O=C([O-])C1=CS[C@@H]2/C(=C\c3cn4c(n3)CCC4)C(=O)N12.[Na+] [Compound 1, (5R), (6Z)-6-(6,7-Dihydro-5H-pyrrolo[1,2-a]imidazol-2-ylmethylene)-7-oxo-4-thia-1-aza-bicyclo[3.2.0]hept-2-ene-2-carboxylic Acid, Sodium Salt]
MIC [1]: 0.03 µg/mL | MIC (K. pn GC 1827 (TEM-3)): 0.03 µg/mL | MIC [2]: 0.50 µg/mL | MIC [3]: 0.25 µg/mL | MIC [4]: 0.06 µg/mL | MIC [5]: 0.25 µg/mL
